Reference: US20250163104A1, “MACROCYCLIC IMMUNOMODULATORS” (priority 2021, published 2025)
Where a SMILES comes first, the peptide text is derived from it. Bridges are numbered along the chain shown (N, C = ends). [ ]: non-standard residue; d: D form. The star is where a group is joined. Ala(indol-4-yl) = N[C@@H](Cc1cccc2[nH]ccc12)C(=O)O; Phe(3-CF3) = N[C@@H](Cc1cccc(C(F)(F)F)c1)C(=O)O; Ala(morpholin-4-yl) = N[C@@H](CN1CCOCC1)C(=O)O; Phe(4-COOH) = N[C@@H](Cc1ccc(C(=O)O)cc1)C(=O)O; Bip = N[C@@H](Cc1ccc(-c2ccccc2)cc1)C(=O)O; Phe(3-Me) = Cc1cccc(C[C@H](N)C(=O)O)c1; 4Pal = N[C@@H](Cc1ccncc1)C(=O)O; Cha = N[C@@H](CC1CCCCC1)C(=O)O; Cit = NC(=O)NCCC[C@H](N)C(=O)O; dCha = N[C@H](CC1CCCCC1)C(=O)O; Carboxymethyl = O=C(O)C*; Nle = CCCC[C@H](N)C(=O)O; Orn = NCCC[C@H](N)C(=O)O; Dab = NCC[C@H](N)C(=O)O; Dap = NC[C@H](N)C(=O)O; Propargyl = C#CC*

The molecules below were run against T1, human PD-1 / PD-L1-Ig binding on Jurkat cell line over-expressing human PD-1 (Jurkat-PD-1) (Homo sapiens, UniProt Q15116) (assay: Jurkat-PD-1 Cell Binding High-Content Screening Assay (CBA)). Details: Jurkat-PD-1 cells, PE-labeled PD-L1-Ig 20 nM final; read-out: Jurkat HPD1_PDL1 IC50.
T1 construct: expressed in transfected cells; host or cells: Jurkat
Assay type: cell-based
Summary of the method: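 Read-out: high-content imaging of PE-tagged PD-L1-Ig bound to Jurkat cells overexpressing human PD-1, after fixation with 4% paraformaldehyde and Hoechst 33342 nuclear staining. Ligand was used at 20 nM final for 1 hour, after a 2 h compound exposure at 37° C in serum-containing DMEM.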

T1 sequence (Q15116 25-288): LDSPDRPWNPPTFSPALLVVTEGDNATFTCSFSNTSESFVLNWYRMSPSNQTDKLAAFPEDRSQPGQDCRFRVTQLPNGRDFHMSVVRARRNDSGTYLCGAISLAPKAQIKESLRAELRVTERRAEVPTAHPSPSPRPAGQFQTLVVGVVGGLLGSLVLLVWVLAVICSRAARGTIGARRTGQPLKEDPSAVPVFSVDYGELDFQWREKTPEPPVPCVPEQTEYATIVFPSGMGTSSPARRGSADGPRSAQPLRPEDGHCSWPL

SMILES	IC50 [nM]
C#CCOc1ccc(C[C@@H]2NC(=O)[C@H](Cc3cccc(C)c3)NC(=O)[C@H](CC(=O)O)NC(=O)[C@H](Cc3ccc(C(=O)O)cc3)NC(=O)[C@H]([C@@H](C)O)NC(=O)CSC[C@@H](C(=O)N[C@@H](CCN)C(N)=O)NC(=O)[C@H](CCC(=O)O)NC(=O)[C@H](C(C)C)NC(=O)[C@H](CC3CCCCC3)NC(=O)[C@H](CCN)NC(=O)[C@@H](CC(C)C)NC(=O)[C@H](CCCN)NC(=O)[C@H](Cc3ccc(C(=O)O)cc3)NC(=O)[C@H](Cc3ccc(-c4ccccc4)cc3)NC2=O)cc1 [Compound 1841] ({CH2CO}-T[Phe(4-COOH)]D[Phe(3-Me)]Y(Propargyl)[Bip][Phe(4-COOH)][Orn][dL][Dab][Cha]VEC[Dab]-NH2; thioether N-14)	3.9
CC(C)C[C@@H]1NC(=O)[C@H](CCN)NC(=O)[C@@H](CC(C)C)NC(=O)[C@H](CCCN)NC(=O)[C@H](CCCNC(N)=O)NC(=O)[C@H](Cc2ccc(-c3ccccc3)cc2)NC(=O)[C@H](C(C)C)NC(=O)[C@H](Cc2c[nH]c3ccccc23)NC(=O)[C@H](CC(=O)O)NC(=O)[C@H](Cc2ccc(O)cc2)NC(=O)[C@H](CC(N)=O)NC(=O)CSC[C@@H](C(=O)N[C@@H](C)C(N)=O)NC(=O)[C@H]([C@@H](C)O)NC(=O)[C@H](C(C)C)NC1=O [Compound 1017] ({CH2CO}-NYDWV[Bip][Cit][Orn][dL][Dab]LVTCA-NH2; thioether N-14)	20.3
CC(C)C[C@@H]1NC(=O)[C@H](Cc2c[nH]c3ccccc23)NC(=O)[C@H](CC(=O)O)NC(=O)[C@H](Cc2ccc(O)cc2)NC(=O)[C@H](Cc2ccccc2)NC(=O)CSC[C@@H](C(=O)NCC(N)=O)NC(=O)[C@H](CO)NC(=O)[C@H](C(C)C)NC(=O)[C@H](CC2CCCCC2)NC(=O)[C@H](CC(N)=O)NC(=O)[C@@H](CC(C)C)NC(=O)[C@H](CN)NC(=O)[C@H](C(C)C)NC(=O)[C@H](Cc2ccc(-c3ccccc3)cc2)NC1=O [Compound 1392] ({CH2CO}-FYDWL[Bip]V[Dap][dL]N[Cha]VSCG-NH2; thioether N-14)	78.1
Cc1cccc(C[C@@H]2NC(=O)[C@H](CC(=O)O)NC(=O)[C@H](Cc3ccc(OCC(=O)O)cc3)NC(=O)[C@H](CN)NC(=O)CSC[C@@H](C(=O)N[C@@H](CCN)C(N)=O)NC(=O)[C@H]([C@@H](C)O)NC(=O)[C@H](C(C)C)NC(=O)[C@H](CC3CCCCC3)NC(=O)[C@H](CCN)NC(=O)[C@@H](CC(C)C)NC(=O)[C@H](CCCN)NC(=O)[C@H](CCCNC(N)=O)NC(=O)[C@H](Cc3ccc(-c4ccccc4)cc3)NC(=O)[C@H](C(C)C)NC2=O)c1 [Compound 2010] ({CH2CO}-[Dap]Y(Carboxymethyl)D[Phe(3-Me)]V[Bip][Cit][Orn][dL][Dab][Cha]VTC[Dab]-NH2; thioether N-14)	10.3
CC(C)C[C@H]1NC(=O)[C@H](CCCN)NC(=O)[C@H](CCCNC(N)=O)NC(=O)[C@H](Cc2ccc(-c3ccccc3)cc2)NC(=O)[C@H](C(C)C)NC(=O)[C@H](Cc2c[nH]c3ccccc23)NC(=O)[C@H](CC(=O)O)NC(=O)[C@H](Cc2ccc(O)cc2)NC(=O)[C@H](CN)NC(=O)CSC[C@@H](C(=O)N[C@@H](C)C(N)=O)NC(=O)[C@H]([C@@H](C)O)NC(=O)[C@H](C(C)C)NC(=O)[C@H](CC2CCCCC2)NC(=O)[C@H](CCCNC(=N)N)NC1=O [Compound 1153] ({CH2CO}-[Dap]YDWV[Bip][Cit][Orn][dL]R[Cha]VTCA-NH2; thioether N-14)	8.9
Cc1cccc(C[C@@H]2NC(=O)[C@H](CC(=O)O)NC(=O)[C@H](Cc3ccc(C(=O)O)cc3)NC(=O)[C@H](CN)NC(=O)CSC[C@@H](C(=O)N[C@@H](C)C(N)=O)NC(=O)[C@H]([C@@H](C)O)NC(=O)[C@H](C(C)C)NC(=O)[C@H](CC3CCCCC3)NC(=O)[C@H](CCN)NC(=O)[C@@H](CC(C)C)NC(=O)[C@H](CCCN)NC(=O)[C@H](CCCNC(N)=O)NC(=O)[C@H](Cc3ccc(-c4ccccc4)cc3)NC(=O)[C@H](C(C)C)NC2=O)c1 [Compound 1202]	9.8
CC(C)[C@@H]1NC(=O)[C@H](Cc2c[nH]c3ccccc23)NC(=O)[C@H](CC(=O)O)NC(=O)[C@H](Cc2ccncc2)NC(=O)[C@H](CN)NC(=O)CSC[C@@H](C(=O)N[C@@H](C)C(N)=O)NC(=O)[C@H]([C@@H](C)O)NC(=O)[C@H](C(C)C)NC(=O)[C@H](CC2CCCCC2)NC(=O)[C@H](CCN)NC(=O)[C@@H](CC2CCCCC2)NC(=O)[C@H](CCCN)NC(=O)[C@H](CCC(=O)O)NC(=O)[C@H](Cc2ccc(-c3ccccc3)cc2)NC1=O [Compound 1440] ({CH2CO}-[Dap][4Pal]DWV[Bip]E[Orn][dCha][Dab][Cha]VTCA-NH2; thioether N-14)	86.8
CC(C)C[C@H]1NC(=O)[C@H](CCCN)NC(=O)[C@H](Cc2ccc(C(=O)O)cc2)NC(=O)[C@H](Cc2ccc(-c3ccccc3)cc2)NC(=O)[C@H](Cc2cccc3[nH]ccc23)NC(=O)[C@H](Cc2cccc(C(F)(F)F)c2)NC(=O)[C@H](CC(=O)O)NC(=O)[C@H](Cc2ccc(C(=O)O)cc2)NC(=O)[C@H](CN2CCOCC2)NC(=O)CSC[C@@H](C(=O)N[C@@H](CCN)C(N)=O)NC(=O)[C@H](CCC(=O)O)NC(=O)[C@H](C(C)C)NC(=O)[C@H](CC2CCCCC2)NC(=O)[C@H](CCN)NC1=O [Example 2742] ({CH2CO}-[Ala(morpholin-4-yl)][Phe(4-COOH)]D[Phe(3-CF3)][Ala(indol-4-yl)][Bip][Phe(4-COOH)][Orn][dL][Dab][Cha]VEC[Dab]-NH2; thioether N-14)	4.6
CCCC[C@@H]1NC(=O)[C@H](CC(N)=O)NC(=O)[C@@H](CC(C)C)NC(=O)[C@H](CN)NC(=O)[C@H](C(C)C)NC(=O)[C@H](Cc2ccc(-c3ccccc3)cc2)NC(=O)[C@H](CC(C)C)NC(=O)[C@H](Cc2c[nH]c3ccccc23)NC(=O)[C@H](CC(=O)O)NC(=O)[C@H](Cc2ccc(C(=O)O)cc2)NC(=O)[C@H](Cc2ccc(OCC(=O)O)cc2)NC(=O)CSC[C@@H](C(=O)NCC(N)=O)NC(=O)[C@H](CO)NC(=O)[C@H](C(C)C)NC1=O [Compound 1398] ({CH2CO}-Y(Carboxymethyl)[Phe(4-COOH)]DWL[Bip]V[Dap][dL]N[Nle]VSCG-NH2; thioether N-14)	23.7
Cc1cccc(C[C@@H]2NC(=O)[C@H](CC(=O)O)NC(=O)[C@H](Cc3ccc(OCC(=O)O)cc3)NC(=O)[C@H](Cc3ccc(OCC(=O)O)cc3)NC(=O)CSC[C@@H](C(N)=O)NC(=O)[C@H](CO)NC(=O)[C@H](C(C)C)NC(=O)[C@H](CC(C)C)NC(=O)[C@H](CCN)NC(=O)[C@@H](CC(C)C)NC(=O)[C@H](CCCN)NC(=O)[C@H](C(C)C)NC(=O)[C@H](Cc3ccc(-c4ccccc4)cc3)NC(=O)[C@H](CC(C)C)NC2=O)c1 [Compound 1649] ({CH2CO}-Y(Carboxymethyl)Y(Carboxymethyl)D[Phe(3-Me)]L[Bip]V[Orn][dL][Dab]LVSC-NH2; thioether N-14)	34.5
Cc1cccc(C[C@@H]2NC(=O)[C@H](CC(=O)O)NC(=O)[C@H](Cc3ccc(OCC(=O)O)cc3)NC(=O)[C@H](CN)NC(=O)CSC[C@@H](C(=O)N[C@@H](C)C(N)=O)NC(=O)[C@H](CCCCN)NC(=O)[C@H](C(C)C)NC(=O)[C@H](CC3CCCCC3)NC(=O)[C@H](CCN)NC(=O)[C@@H](CC(C)C)NC(=O)[C@H](CCCN)NC(=O)[C@H](C(C)C)NC(=O)[C@H](Cc3ccc(-c4ccccc4)cc3)NC(=O)[C@H](C(C)C)NC2=O)c1 [Compound 1755] ({CH2CO}-[Dap]Y(Carboxymethyl)D[Phe(3-Me)]V[Bip]V[Orn][dL][Dab][Cha]VKCA-NH2; thioether N-14)	8.4
